Results: publication PMC11864979, “First-in-class ultralong-target-residence-time p38α inhibitors as a mitosis-targeted therapy for colorectal cancer” (Nature Cancer, 2025)
Where “and” joins values, the source holds several entries; their conditions need not be identical. Identical values can stand only once. Like-named read-outs stand apart in the source and are kept apart here.

Experiments:
340 wild-type kinases [1] = target: T1, 340 wild-type kinases (Homo sapiens, UniProt P11802); test: selectivity profiling in a panel of 340 wild-type kinases (Reaction Biology Europe); format: binding; settings: CDK4/CycD1; 1 µM; read-out: residual activity
T1 construct: purchased Reaction Biology Europe
Description: (§1) Potential interactions between 2015 and 340 wild-type kinases were checked by means of a competition binding assay performed by Reaction Biology Europe (Supplementary Table 15).

340 wild-type kinases [2] = target: T2, 340 wild-type kinases (Homo sapiens, UniProt P25098); test: as above; format: binding; settings: 1 µM 2015; read-out: GRK2 residual activity
T2 construct: purchased Reaction Biology Europe
T2 sequence (P25098 1-689): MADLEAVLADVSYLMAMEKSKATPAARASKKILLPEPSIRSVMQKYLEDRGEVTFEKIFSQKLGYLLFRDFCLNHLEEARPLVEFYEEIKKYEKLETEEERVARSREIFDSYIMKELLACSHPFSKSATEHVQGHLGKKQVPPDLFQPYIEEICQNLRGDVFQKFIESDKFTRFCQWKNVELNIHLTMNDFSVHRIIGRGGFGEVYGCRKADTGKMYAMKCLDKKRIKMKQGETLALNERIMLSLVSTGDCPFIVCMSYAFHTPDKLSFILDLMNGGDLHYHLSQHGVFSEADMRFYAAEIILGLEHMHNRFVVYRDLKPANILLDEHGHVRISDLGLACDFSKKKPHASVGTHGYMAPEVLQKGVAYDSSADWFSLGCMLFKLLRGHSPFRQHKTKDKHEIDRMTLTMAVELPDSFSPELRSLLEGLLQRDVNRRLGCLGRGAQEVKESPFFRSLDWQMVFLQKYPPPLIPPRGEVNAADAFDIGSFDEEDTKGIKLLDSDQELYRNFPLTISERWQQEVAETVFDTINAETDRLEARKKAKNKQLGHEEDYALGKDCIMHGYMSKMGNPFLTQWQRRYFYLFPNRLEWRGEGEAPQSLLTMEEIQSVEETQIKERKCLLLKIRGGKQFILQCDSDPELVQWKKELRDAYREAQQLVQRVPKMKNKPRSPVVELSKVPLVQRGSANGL
Description: as §1

340 wild-type kinases [3] = target: T3, 340 wild-type kinases (Homo sapiens, UniProt P36896); test: as above; format: binding; settings: 1 µM 2015; read-out: ACVR1B residual activity
T3 construct: purchased Reaction Biology Europe
T3 sequence (P36896 24-505): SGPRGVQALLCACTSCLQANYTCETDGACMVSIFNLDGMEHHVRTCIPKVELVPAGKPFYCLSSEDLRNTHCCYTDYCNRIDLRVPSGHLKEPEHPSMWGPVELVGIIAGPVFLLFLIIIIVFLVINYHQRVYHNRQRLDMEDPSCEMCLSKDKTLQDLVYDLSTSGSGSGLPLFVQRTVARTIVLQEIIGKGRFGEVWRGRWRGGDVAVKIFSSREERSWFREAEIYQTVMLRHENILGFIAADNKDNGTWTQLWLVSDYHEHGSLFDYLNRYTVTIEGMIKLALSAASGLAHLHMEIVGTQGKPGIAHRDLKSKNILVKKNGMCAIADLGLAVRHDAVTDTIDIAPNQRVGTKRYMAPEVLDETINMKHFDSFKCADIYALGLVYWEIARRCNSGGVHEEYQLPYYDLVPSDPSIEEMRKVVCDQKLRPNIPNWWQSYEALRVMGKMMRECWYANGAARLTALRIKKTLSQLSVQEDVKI
Description: as §1

340 wild-type kinases [4] = target: T4, 340 wild-type kinases (Homo sapiens, UniProt P48729); test: as above; format: binding; settings: 1 µM 2015; read-out: CK1alpha1 residual activity
T4 construct: purchased Reaction Biology Europe
Description: as §1

340 wild-type kinases [5] = target: T5, 340 wild-type kinases (Homo sapiens, UniProt Q00537); test: as above; format: binding; settings: CDK17/p35NCK; 0.2 µM; read-out: residual activity
T5 construct: purchased Reaction Biology Europe
Description: as §1

340 wild-type kinases [6] = target: T6, 340 wild-type kinases (Homo sapiens, UniProt Q8TDX7); test: as above; format: binding; settings: NEK7; 1 µM; read-out: residual activity
T6 construct: purchased Reaction Biology Europe
Description: as §1

340 wild-type kinases [7] = target: T7, 340 wild-type kinases (Homo sapiens, UniProt Q9HAZ1); test: as above; format: binding; settings: 1 µM 2015; read-out: CLK4 residual activity
T7 construct: purchased Reaction Biology Europe
Description: as §1

340 wild-type kinases [8] = target: T8, 340 wild-type kinases (Homo sapiens, UniProt Q9UPE1); test: as above; format: binding; settings: STK23; 1 µM; read-out: residual activity
T8 construct: purchased Reaction Biology Europe
Description: as §1

[9] = tested on: subcutaneous human PDO6 CRCs; test: treatment of subcutaneous human PDO6 CRCs in CB17 Scid beige mice; format: in vivo, mouse
Procedure: Subcutaneous injection, splenic seeding or cecum injection of organoids was performed in 8–10-week-old C57BL/6 N/Crl, Rag2^−/− (B6.Cg-Rag2^tm1.1Cgn/J), or CB17 Scid beige (CB17.Cg-Prkdc^scidLyst^bg-J/Crl) mice, obtained from Charles River. The organoids were dissociated into single cells, washed with PBS and injected in a 1:1 mixture of PBS and Matrigel. For murine organoids, 1 × 10^5 cells were injected into the left and right flanks or the spleen capsule and 2 × 10^6 cells were injected into the cecum wall. For human organoids, 4 × 10^5 cells were injected into the flanks of CB17 Scid beige mice. For splenic seeding and cecum injection, mice were anaesthetized using ketamine (100 mg kg^−1, intraperitoneally) and xylazin (10 mg/kg, intraperitoneally) in NaCl and a small laparotomy below the thorax was performed. Upon injection, the puncture region was washed with prewarmed H2O. Within the first week after operation, the mice were treated with the analgesics carprofen and metamizol. The maximum size of individual tumor nodules permitted by the regional authority of the state of Baden-Wuerttemberg (Regierungspraesidium Tübingen: subcutaneous tumor nodules, 1 cm; other tumor nodules, 0.5 cm) was not exceeded.
No mice were excluded during treatment studies. […] GFP imaging of tumors was performed using a Hamamatsu imaging system.

immune cells = test: FACS quantification of immune cells in blood, spleen, liver and tumors of treated mice;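 for CD4+, % of CD3+ cells: blood spleen or tumors of KAP liver metastasis mice after 4 days treatment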;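 for CD69+ % of CD4+ T cells: tumor-free livers or KAP liver tumors after 4 days treatment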;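 for CD69+ % of CD8+ T cells: tumor-free livers or KAP liver tumors after 4 days treatment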;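 for CD69+ % of T cells: tumor-free livers or KAP liver tumors after 4 days treatment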;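 for CD8+, % of CD3+ cells: blood spleen or tumors of KAP liver metastasis mice after 4 days treatment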; format: in vivo, mouse; settings: for CD4+, % of CD3+ cells / CD8+, % of CD3+ cells / CD69+ % of CD4+ T cells / CD69+ % of CD8+ T cells / CD69+ % of T cells: single animals; for CD4+, % of CD3+ cells / CD8+, % of CD3+ cells: Fig. 6f; for CD69+ % of CD4+ T cells / CD69+ % of CD8+ T cells / CD69+ % of T cells: Fig. 6g; for B cells, % of living cells / CD4+ T cells, % of living cells / CD8+ T cells, % of living cells / Dendritic cells, % of living cells / Granulocytes, % of living cells / Monocytes, % of living cells / NK cells, % of living cells / T cells, % of living cells: spleen, 4 d of treatment
Procedure: To determine immune cells, cell suspensions of peripheral blood, spleen, liver or tumors were prepared. Cells were lysed with ammonium chloride buffer ([…], 0.1 mM EDTA and 0.150 mM KHCO3) to eliminate erythrocytes and were stained with antibodies from Biolegend and the live–dead fixable aqua dead cell stain kit (Thermo Fisher Scientific; dilution: 1:1,000). All used antibodies and dilutions are listed in the Nature Portfolio Reporting Summary. Cells were analyzed with the LSR Fortessa (BD). Samples were gated on single viable cells and the percentage of NK cells (NK1.1^+CD3^−), T cells (CD3^+NK1.1^−), CD4^+ T cells (CD3^+NK1.1^−CD4^+CD8a^−), CD8^+ T cells (CD3^+NK1.1^−CD8a^+CD4^−), B cells (CD3^−NK1.1^−CD19^+Ly6G^−), dendritic cells (CD3^−NK1.1^−CD19^−CD11c^+), monocytes (CD3^−NK1.1^−CD19^−CD11c^−Ly6Ghigh^+CD16/32low^+) and granulocytes (CD3^−NK1.1^−CD19^−CD11c^−Ly6G^+CD16/32high^+) was calculated.

340 wild-type kinases [10] = target: T9, 340 wild-type kinases (Homo sapiens, UniProt Q9H4A3); test: selectivity profiling in a panel of 340 wild-type kinases (Reaction Biology Europe); format: binding
T9 construct: purchased Reaction Biology Europe
T9 sequence (Q9H4A3 whole entry): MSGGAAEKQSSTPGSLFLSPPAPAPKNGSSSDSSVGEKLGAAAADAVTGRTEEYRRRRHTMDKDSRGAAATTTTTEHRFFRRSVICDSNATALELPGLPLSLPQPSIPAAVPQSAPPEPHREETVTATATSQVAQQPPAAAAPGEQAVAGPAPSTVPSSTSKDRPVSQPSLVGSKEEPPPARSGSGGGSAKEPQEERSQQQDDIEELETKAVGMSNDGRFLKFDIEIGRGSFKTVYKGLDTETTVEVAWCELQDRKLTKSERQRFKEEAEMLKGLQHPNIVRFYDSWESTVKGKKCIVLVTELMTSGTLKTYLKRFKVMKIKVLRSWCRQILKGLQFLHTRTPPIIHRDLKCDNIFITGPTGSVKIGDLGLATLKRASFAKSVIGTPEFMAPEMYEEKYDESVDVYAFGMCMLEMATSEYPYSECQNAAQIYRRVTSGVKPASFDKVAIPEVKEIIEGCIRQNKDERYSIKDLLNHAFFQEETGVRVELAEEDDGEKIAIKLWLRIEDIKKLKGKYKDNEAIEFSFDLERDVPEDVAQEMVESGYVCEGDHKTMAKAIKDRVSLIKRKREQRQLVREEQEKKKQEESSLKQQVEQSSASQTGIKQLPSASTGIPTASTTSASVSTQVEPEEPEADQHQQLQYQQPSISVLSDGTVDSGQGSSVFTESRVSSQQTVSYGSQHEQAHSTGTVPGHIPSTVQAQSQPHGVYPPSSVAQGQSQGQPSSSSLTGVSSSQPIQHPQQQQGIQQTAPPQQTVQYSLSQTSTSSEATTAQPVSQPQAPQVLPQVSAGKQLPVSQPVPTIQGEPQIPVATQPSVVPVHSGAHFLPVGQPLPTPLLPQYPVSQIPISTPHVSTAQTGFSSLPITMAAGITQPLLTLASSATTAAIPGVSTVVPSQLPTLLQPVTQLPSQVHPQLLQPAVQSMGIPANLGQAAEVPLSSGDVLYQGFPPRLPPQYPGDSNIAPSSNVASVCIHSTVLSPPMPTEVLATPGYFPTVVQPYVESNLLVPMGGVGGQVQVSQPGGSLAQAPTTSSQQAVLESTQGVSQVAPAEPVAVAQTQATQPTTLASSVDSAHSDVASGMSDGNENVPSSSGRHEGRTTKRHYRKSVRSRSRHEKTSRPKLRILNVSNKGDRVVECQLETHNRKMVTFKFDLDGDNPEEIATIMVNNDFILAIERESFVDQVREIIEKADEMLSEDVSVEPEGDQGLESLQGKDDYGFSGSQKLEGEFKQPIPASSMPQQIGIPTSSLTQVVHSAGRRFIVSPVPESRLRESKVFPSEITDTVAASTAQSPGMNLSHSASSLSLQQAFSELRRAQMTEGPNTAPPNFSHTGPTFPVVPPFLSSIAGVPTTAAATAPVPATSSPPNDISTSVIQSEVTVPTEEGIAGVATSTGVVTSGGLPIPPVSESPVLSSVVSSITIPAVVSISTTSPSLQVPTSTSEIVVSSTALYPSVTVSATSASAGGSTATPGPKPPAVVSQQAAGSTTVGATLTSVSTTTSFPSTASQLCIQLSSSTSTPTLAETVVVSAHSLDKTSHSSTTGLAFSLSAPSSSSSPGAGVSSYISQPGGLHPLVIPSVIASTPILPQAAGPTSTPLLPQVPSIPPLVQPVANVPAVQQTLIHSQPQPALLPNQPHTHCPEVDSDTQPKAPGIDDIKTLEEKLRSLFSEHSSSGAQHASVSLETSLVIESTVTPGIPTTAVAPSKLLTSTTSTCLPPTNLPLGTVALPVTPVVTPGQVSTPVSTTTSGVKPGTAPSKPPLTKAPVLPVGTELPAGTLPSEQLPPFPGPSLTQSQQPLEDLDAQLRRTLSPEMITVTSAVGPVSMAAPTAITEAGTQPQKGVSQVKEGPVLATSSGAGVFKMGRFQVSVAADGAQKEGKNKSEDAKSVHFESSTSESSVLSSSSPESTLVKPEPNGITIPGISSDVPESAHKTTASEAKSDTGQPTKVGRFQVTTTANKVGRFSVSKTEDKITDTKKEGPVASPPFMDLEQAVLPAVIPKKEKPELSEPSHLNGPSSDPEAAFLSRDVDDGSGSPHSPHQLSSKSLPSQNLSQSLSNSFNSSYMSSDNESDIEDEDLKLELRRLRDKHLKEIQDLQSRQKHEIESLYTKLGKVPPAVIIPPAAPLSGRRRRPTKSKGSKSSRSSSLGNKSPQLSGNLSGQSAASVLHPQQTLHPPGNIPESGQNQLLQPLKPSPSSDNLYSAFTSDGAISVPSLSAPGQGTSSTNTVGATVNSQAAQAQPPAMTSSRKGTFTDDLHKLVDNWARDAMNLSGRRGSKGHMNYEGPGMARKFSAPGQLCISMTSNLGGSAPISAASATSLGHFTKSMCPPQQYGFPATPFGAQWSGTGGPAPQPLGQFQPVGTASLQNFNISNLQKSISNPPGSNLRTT

T5 sequence (Q00537 whole entry): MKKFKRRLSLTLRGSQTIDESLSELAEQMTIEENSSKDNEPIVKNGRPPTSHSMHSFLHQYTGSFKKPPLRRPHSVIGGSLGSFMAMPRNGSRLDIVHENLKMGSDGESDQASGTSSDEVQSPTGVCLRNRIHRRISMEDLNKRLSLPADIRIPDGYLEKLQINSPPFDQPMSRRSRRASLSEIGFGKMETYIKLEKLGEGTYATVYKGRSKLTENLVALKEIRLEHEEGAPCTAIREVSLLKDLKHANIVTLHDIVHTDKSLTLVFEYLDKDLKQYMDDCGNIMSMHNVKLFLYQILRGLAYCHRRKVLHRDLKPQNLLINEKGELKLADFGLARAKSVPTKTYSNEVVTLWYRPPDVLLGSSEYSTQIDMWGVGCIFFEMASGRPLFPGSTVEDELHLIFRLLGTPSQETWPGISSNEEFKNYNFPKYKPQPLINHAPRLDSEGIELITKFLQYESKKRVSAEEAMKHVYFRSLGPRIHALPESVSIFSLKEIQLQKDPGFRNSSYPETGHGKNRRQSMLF
T6 sequence (Q8TDX7 whole entry): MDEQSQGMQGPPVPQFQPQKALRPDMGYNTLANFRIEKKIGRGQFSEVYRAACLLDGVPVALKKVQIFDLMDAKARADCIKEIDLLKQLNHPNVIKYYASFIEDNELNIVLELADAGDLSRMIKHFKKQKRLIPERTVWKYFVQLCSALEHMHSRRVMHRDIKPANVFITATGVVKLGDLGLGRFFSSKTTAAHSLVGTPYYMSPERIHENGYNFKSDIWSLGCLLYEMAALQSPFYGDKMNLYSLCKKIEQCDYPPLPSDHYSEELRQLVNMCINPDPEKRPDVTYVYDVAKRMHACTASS
T4 sequence (P48729 whole entry): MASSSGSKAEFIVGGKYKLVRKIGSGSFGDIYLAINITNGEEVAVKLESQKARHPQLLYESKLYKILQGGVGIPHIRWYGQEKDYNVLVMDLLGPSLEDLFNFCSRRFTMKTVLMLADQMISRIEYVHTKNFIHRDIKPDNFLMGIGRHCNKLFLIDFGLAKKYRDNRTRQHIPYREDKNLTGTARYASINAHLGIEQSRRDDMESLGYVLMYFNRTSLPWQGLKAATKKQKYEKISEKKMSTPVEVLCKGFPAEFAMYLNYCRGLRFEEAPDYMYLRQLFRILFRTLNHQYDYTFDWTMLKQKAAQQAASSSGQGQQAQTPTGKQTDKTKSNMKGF
T1 sequence (P11802 whole entry): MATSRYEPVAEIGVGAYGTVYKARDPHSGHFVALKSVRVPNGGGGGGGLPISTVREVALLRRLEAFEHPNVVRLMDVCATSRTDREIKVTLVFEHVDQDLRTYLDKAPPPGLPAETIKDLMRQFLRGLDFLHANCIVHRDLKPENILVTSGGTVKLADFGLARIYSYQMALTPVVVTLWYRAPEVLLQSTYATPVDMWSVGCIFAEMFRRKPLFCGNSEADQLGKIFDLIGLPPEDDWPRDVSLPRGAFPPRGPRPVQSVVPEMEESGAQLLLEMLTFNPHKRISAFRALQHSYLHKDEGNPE
T8 sequence (Q9UPE1 whole entry): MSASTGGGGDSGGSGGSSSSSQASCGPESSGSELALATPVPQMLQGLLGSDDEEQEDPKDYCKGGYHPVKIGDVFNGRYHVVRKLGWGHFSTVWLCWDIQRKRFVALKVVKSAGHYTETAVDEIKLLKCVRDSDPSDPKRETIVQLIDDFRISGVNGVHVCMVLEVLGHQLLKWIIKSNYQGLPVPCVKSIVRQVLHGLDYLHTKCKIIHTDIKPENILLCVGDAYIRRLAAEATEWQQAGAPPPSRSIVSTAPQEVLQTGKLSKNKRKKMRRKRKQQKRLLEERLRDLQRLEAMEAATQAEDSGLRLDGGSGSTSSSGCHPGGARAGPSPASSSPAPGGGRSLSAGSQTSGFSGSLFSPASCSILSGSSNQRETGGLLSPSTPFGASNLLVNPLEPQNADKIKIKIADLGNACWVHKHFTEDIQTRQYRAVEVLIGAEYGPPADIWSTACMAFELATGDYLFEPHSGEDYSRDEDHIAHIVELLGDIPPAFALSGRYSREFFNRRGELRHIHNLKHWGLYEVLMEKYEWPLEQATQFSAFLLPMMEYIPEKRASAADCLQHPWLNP
T7 sequence (Q9HAZ1 whole entry): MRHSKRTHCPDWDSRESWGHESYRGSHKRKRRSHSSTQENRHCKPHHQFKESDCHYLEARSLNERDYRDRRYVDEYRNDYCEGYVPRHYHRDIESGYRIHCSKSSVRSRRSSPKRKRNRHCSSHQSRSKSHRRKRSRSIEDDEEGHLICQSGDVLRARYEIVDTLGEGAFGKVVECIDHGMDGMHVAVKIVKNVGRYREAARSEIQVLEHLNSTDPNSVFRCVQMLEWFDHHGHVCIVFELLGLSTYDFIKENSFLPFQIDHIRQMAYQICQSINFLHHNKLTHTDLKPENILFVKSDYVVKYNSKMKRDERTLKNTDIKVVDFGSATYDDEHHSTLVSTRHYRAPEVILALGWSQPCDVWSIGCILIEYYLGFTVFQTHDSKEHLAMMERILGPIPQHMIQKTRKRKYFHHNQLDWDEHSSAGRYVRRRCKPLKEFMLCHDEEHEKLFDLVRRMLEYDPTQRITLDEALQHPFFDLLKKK

SMILES: CNC(=O)c1ccc2c(c1)C(=O)c1ccc(Nc3ccc(F)c(NC(=O)C4CC4)c3)cc1CC2 [Compound 2015]
- remaining activity at 1 µM (340 wild-type kinases [1]): 98.4%
- remaining activity at 1 µM (340 wild-type kinases [2]): 80.8%
- remaining activity at 1 µM (340 wild-type kinases [3]): 86.1%
- remaining activity at 1 µM (340 wild-type kinases [4]): 94.9%
- remaining activity at 0.2 µM (340 wild-type kinases [5]): 94.8%
- remaining activity at 1 µM (340 wild-type kinases [6]): 110%
- remaining activity at 1 µM (340 wild-type kinases [7]): 118%
- remaining activity at 1 µM (340 wild-type kinases [8]): 94.1%
- Tumor weight ([9]; individual subcutaneous PDO6 tumors, treated 4 weeks): 25 g and 16 g and 4 g and 32 g
- tumor size of PDO6-derived CRCs (in words) ([9]; treated for 4 weeks): strong reduction in tumor size
- CD4^+ T cells in CRC liver metastases (in words) (immune cells; 4 days of treatment): increases the number of CD4^+ T cells
- CD4+, % of CD3+ cells (immune cells; Blood): 59.0% and 54.5% and 53.0% and 56.9%
- CD8+, % of CD3+ cells (immune cells; Blood): 35.8% and 35.1% (2×) and 39.0%
- CD69+ % of CD4+ T cells (immune cells; Liver): 11.90% and 8.89% and 6.59% and 10.70%
- CD69+ % of CD8+ T cells (immune cells; Liver): 5.92% and 8.71% and 6.52% and 6.93%
- CD69+ % of T cells (immune cells; Liver): 9.86% and 8.16% and 6.40% and 10.30%
- CD4+, % of CD3+ cells (immune cells; Spleen): 67.8% and 63.7% and 64.1% and 65.2%
- CD8+, % of CD3+ cells (immune cells; Spleen): 25.5% and 28.8% and 28.3% and 27.0%
- CD4+, % of CD3+ cells (immune cells; Tumor): 74.4% and 79.8% and 62.9%
- CD8+, % of CD3+ cells (immune cells; Tumor): 13.6% and 8.5% and 20.0%
- CD69+ % of CD4+ T cells (immune cells; Tumor): 56.80% and 69.90% and 47.60%
- CD69+ % of CD8+ T cells (immune cells; Tumor): 44.60% and 54.20% and 52.00%
- CD69+ % of T cells (immune cells; Tumor): 49.80% and 60.30% and 42.10%
- B cells, % of living cells (immune cells; healthy mice): 45.80% and 42.90% and 40.80% and 40.90%
- CD4+ T cells, % of living cells (immune cells; healthy mice): 22.70% and 22.50% and 25.00% and 24.30%
- CD8+ T cells, % of living cells (immune cells; healthy mice): 10.00% and 8.13% and 10.80%
- Dendritic cells, % of living cells (immune cells; healthy mice): 2.32% and 3.09% and 2.65% and 2.11%
- Granulocytes, % of living cells (immune cells; healthy mice): 4.12% and 5.18% and 4.35% and 4.21%
- Monocytes, % of living cells (immune cells; healthy mice): 2.59% and 2.56% and 2.30% and 2.36%
- NK cells, % of living cells (immune cells; healthy mice): 2.30% and 4.22% and 4.00% and 4.77%
- T cells, % of living cells (immune cells; healthy mice): 35.20% and 32.90% and 37.90% and 36.50%
- B cells, % of living cells (immune cells; tumor mice (KAP metastases)): 40.60% and 49.20% and 45.00% and 44.10%
- CD4+ T cells, % of living cells (immune cells; tumor mice (KAP metastases)): 26.10% and 18.70% and 20.10% and 20.40%
- CD8+ T cells, % of living cells (immune cells; tumor mice (KAP metastases)): 9.80% and 8.43% and 8.87% and 8.45%
- Dendritic cells, % of living cells (immune cells; tumor mice (KAP metastases)): 3.14% and 2.58% and 3.53% and 2.01%
- Granulocytes, % of living cells (immune cells; tumor mice (KAP metastases)): 3.71% and 4.06% and 4.14% and 4.54%
- Monocytes, % of living cells (immune cells; tumor mice (KAP metastases)): 3.31% and 3.61% and 4.85% and 6.16%
- NK cells, % of living cells (immune cells; tumor mice (KAP metastases)): 3.40% and 4.06% and 3.95% and 4.77%
- T cells, % of living cells (immune cells; tumor mice (KAP metastases)): 38.40% and 29.30% and 31.40% and 31.30%
- remaining activity at 0.2 µM (340 wild-type kinases [10]; 0.2 µM 2015, read-out: WNK1 residual activity): 95%
- remaining activity at 1 µM (340 wild-type kinases [10]; 1 µM 2015, read-out: WNK1 residual activity): 91.4%
- remaining activity at 0.2 µM (340 wild-type kinases [10]; WNK1, 0.2 µM, read-out: residual activity): 95%
- remaining activity at 1 µM (340 wild-type kinases [10]; WNK1, 1 µM, read-out: residual activity): 91.4%
